Assay results: paper PMC12518693, “Potent Fluorescent Probe for Target‐Engagement Studies of Allosteric Pyruvate Kinase Modulators” (Angewandte Chemie (International Ed. in English), 2025)
pEC50: −log10 of the molar value.

Key:
[1] = target: PKM2 (Homo sapiens, UniProt P14618); assay: Recombinant PKM2 activity assay (Kinase-Glo MAX); format: biochemical; design: made in house
Description: As these compounds were binding to a known allosteric site on PK, the effects of ligands I–IV on the enzymatic activities of PKL and PKM2 were determined (Figure S2). The two isozymes were incubated with increasing concentrations of compounds before the addition of substrates PEP and adenosine diphosphate (ADP), and the reactions were monitored using a Kinase‐Glo MAX assay.
Figure S2. Effects of ligands I-IV on recombinant PK activities. PKL or PKM2 (10 nM) were pre-incubated with the compounds (0-100 µM) for 15 min following the addition of PEP (0.1 mM) and ADP (0.2 mM). The reactions were terminated by the addition of Kinase Glo-MAX reagent after 10 min, and the luminescence from each reaction was quantified using a plate reader. The activity values are expressed as a percentage of PK activity of the DMSO control. The potencies were calculated by best fit of the Hill equation to the luminescence data.^[2] (A) PKL titrations. (B) PKM2 titrations. Error bars represent the ±SE of replicates (n = 3).

[2] = test system: HEK293 cells; assay: HEK293 cell viability assay (CellTiter-Glo 2.0); format: cell-based; conditions: 2 h
Description: Finally, the effects of tracer IV on cell viability were assessed. HEK293 cells were treated with IV at concentrations of 0, 0.01, 0.1, 1, and 10 µM for 2 h, after which cells were lysed, and intracellular ATP levels were quantified using the CellTiter‐Glo 2.0 assay (Figure S8a).
Figure S8. Cell viability assay (CellTiter-Glo 2.0) of HEK293 cells treated with different concentrations of tracer IV. (A) Cell viability assay performed on HEK293 cells incubated for 2 h with different concentrations of tracer IV or DMSO (0 nM IV) in FluoroBrite™ DMEM complete medium. Results are reported as relative luminescence values (mean ± SE, n=4, One Way ANOVA followed by Dunnett´s multiple comparison test). […] Results are reported as relative luminescence values (mean ± SE, n=4, One Way ANOVA followed by Dunnett´s multiple comparison test). […] Results are reported as relative luminescence values (mean ± SE, n=4, One Way ANOVA followed by Dunnett´s multiple comparison test).
The effect of tracer IV on cell viability was assessed using CellTiter-Glo 2.0 assay (Promega). This is a method that determines the number of viable cells by quantifying the amount of ATP in the metabolically active cells. […] Mono-oxygenation of luciferin catalyzed by luciferase in the presence of ATP will generate light which could be measured by luminometer. […]

Sequence of PKM2 (P14618 whole entry): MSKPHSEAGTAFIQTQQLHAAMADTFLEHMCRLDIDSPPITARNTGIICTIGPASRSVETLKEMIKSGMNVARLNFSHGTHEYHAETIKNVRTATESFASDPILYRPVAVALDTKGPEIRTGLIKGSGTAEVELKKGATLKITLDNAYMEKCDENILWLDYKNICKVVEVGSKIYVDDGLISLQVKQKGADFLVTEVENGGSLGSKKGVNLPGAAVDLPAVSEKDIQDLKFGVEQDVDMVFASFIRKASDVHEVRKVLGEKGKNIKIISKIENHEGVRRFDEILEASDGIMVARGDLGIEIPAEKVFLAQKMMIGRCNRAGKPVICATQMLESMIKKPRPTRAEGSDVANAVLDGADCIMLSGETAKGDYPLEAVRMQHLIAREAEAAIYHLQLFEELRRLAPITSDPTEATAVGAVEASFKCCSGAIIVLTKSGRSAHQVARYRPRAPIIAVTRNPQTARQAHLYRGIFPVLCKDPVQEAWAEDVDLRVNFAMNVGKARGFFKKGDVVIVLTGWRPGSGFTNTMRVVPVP

PKM2 E max ([1]; recombinant PKM2): 449 % of vehicle
pEC50 ([1]; recombinant PKM2 10 nM, 15 min pre-incubation, PEP 0.1 mM, ADP 0.2 mM): 7.77
Structure (SMILES): CN(C)c1ccc(S(=O)(=O)c2ccc3c(=O)n(Cc4cc[nH]n4)ncc3c2)c2nonc12 [Compound IV, 2-((1H-Pyrazol-3-yl)methyl)-6-((7-(dimethylamino)benzo[c][1,2,5]oxadiazol-4-yl)sulfonyl)phthalazin-1(2H)-one]
effect on cell viability (intracellular ATP) ([2]; HEK293, 0.01-10 µM): does not affect cell viability
effect on viability of transfected cells ([2]; HEK293 transfected with PKLNluc or Nluc plasmids, up to highest tested concentration): did not affect the viability
